≈ marks a conversion by molar mass, not a printed value. Where only a bound is given, the exact number is not on record here.

The subject of one test is HEK293. Kind of test: Inhibitory concentration required to produce cytotoxicity against HEK293 cells. Conditions: Homo sapiens. The test is classed as functional, cell-based.
Test [1] concerns Candida albicans. Kind of test: Percent inhibition against RG-1 mutant strain of Candida albicans at 15.5 uM. The format is functional.
The subject of test [2] is Candida albicans. In words: Percent inhibition against efflux-deficient strain of Candida albicans at 15.5 uM. The test is classed as functional.
Test [3] concerns Staphylococcus aureus. Kind of test: Percent inhibition against MraY/MurG in Staphylococcus aureus cell walls at 25 uM. The format is functional.
Test [4] deals with Staphylococcus aureus. In words: Minimum inhibitory concentration against Staphylococcus aureus. The format is functional.
Test [5] has as its system Staphylococcus aureus. In words: Percent inhibition against MurPath in Staphylococcus aureus cell walls at the concentration of 25 uM. The format is functional.

Regarding `COc1ccc(C[C@@H]2[C@H](OC(=O)NCc3ccccc3F)[C@@H](O)CN2C(=O)c2cc(C(F)(F)F)cc(C(F)(F)F)c2)cc1`, in the test on HEK293, the IC50 came to 10 µM. The inhibition at 15.5 µM was below 5% in the test on Candida albicans [1] and 87% in the test with Candida albicans [2].
Take `CCCOC(=O)N1C[C@H](O)[C@@H](OC(=O)NCc2ccccc2-c2ccccc2)[C@H]1Cc1ccc(OC)cc1`: half-maximal inhibition in the test with HEK293 (IC50) was put at 9 µM. In addition, the results for the inhibition at 15.5 µM with Candida albicans [1] and with Candida albicans [2] were 10% and 96%, respectively.
On to `COc1ccc(C[C@@H]2[C@H](OC(=O)NC3CCN(Cc4ccccc4)CC3)[C@@H](O)CN2C(=O)c2cc(-c3ccc(Cl)cc3)oc2C(F)(F)F)cc1`, for which it took 8 µM to reach half-maximal inhibition in the test with HEK293 (IC50). Also, the inhibition at 25 µM in the test with Staphylococcus aureus [3] and in the test with Staphylococcus aureus [5] was below 5% throughout. In the test on Staphylococcus aureus [4], the MIC was 16 µg/mL (≈ 22.5 µM).
The compound `COc1ccc(C[C@@H]2[C@H](OC(=O)NCc3ccc(F)cc3)[C@@H](O)CN2C(=O)c2cc(C(F)(F)F)cc(C(F)(F)F)c2)cc1` showed an IC50 in the test with HEK293 of 8 µM. Besides, the inhibition at 15.5 µM is below 5% in the test on Candida albicans [1] and 87% in the test with Candida albicans [2].
For `CCOC(=O)N1C[C@H](O)[C@@H](OC(=O)NCc2ccccc2-c2ccccc2)[C@H]1Cc1ccc(OC)cc1`, in that order: 22 µM, 14% and 83%.
In turn, `COc1ccc(C[C@@H]2[C@H](OC(=O)N3CCN(C)CC3)[C@@H](O)CN2C(=O)c2cc(-c3ccc(Cl)cc3)oc2C(F)(F)F)cc1` gave an IC50 with HEK293 of 10 µM. Further, the inhibition at 25 µM was 10% in the test with Staphylococcus aureus [3] and below 5% in the test with Staphylococcus aureus [5]. The compound further came in with an MIC in the test with Staphylococcus aureus [4] of 32 µg/mL (≈ 51.4 µM).
As for `COc1ccc(C[C@@H]2[C@H](OC(=O)N[C@@H]3CCN(Cc4ccccc4)C3)[C@@H](O)CN2C(=O)Nc2ccc(-c3ccccc3)cc2)cc1`, the IC50 in the test with HEK293 was 2 µM. Also, the inhibition at 25 µM with Staphylococcus aureus [3] is 20%; in the test on Staphylococcus aureus [5], below 5%. Also, the MIC against Staphylococcus aureus [4] worked out at 16 µg/mL (≈ 25.8 µM).
`COc1ccc(C[C@@H]2[C@H](OC(=O)NCc3ccccc3)[C@@H](O)CN2C(=O)c2cc(C(F)(F)F)cc(C(F)(F)F)c2)cc1`: the IC50 in the test on HEK293 amounted to 16 µM. Besides, the inhibition at 15.5 µM is 8% in the test with Candida albicans [1] and 87% with Candida albicans [2].
`COc1ccc(C[C@@H]2[C@H](OC(=O)NCc3ccccc3-c3ccccc3)[C@@H](O)CN2C(=O)OCC(C)C)cc1` came in with an IC50 with HEK293 of 11 µM. The inhibition at 15.5 µM was below 5% with Candida albicans [1] and 82% in the test on Candida albicans [2].
`COc1ccc(C[C@H]2NC[C@H](O)[C@H]2OC(C)=O)cc1` [ANISOMYCIN] gave an IC50 in the test with HEK293 of 0.02 µM. Also, in the test with Staphylococcus aureus [4], the MIC is above 32 µg/mL. Also, the inhibition at 15.5 µM in the test on Candida albicans [2] was above 99%.

As a reminder, the IC50 is the concentration that inhibits the measured activity by half. Low values mean inhibition by little substance, high ones a need for much substance. As usually defined, the inhibition is the relative decrease from the control value, in per cent. By MIC is commonly meant the lowest concentration that inhibits growth of the organism. Higher therefore signals a less susceptible organism.

The record behind these values is ChEMBL document CHEMBL1140359, “Solid-phase synthesis and anti-infective activity of a combinatorial library based on the natural product anisomycin” (Bioorg Med Chem Lett, 2005).
